Data from paper PMC10982999, “Structure-Guided Design and Optimization of Covalent VHL-Targeted Sulfonyl Fluoride PROTACs” (Journal of Medicinal Chemistry, 2024).

Target: T1, recombinant human VCB (VHL protein with elongin C and elongin B) (Homo sapiens, UniProt P40337)
T1 construct: human VHL (UniPort entry P40337, residues 1 -213); 6xHis followed by TEV site (N, cleaved yes); made in house; host or cells: E. coli One Shot BL21(DE3)
Assay: Gel-based streptavidin shift assay (anti-VHL Western blot)
Assay type: binding
Conditions: 10 μM probe, 2 h incubation at room temperature
Procedure: To assess the ability of VHL-SF1 to covalently modify VHL, we initially developed a streptavidin shift assay in which we exposed recombinant human VCB, a stable complex of VHL protein with elongin C and elongin B, to VHL-SF1-Biotin. VHL biotinylation could then be directly quantified by the apparent shift in molecular weight observed when the sample was mixed with streptavidin and analyzed by an anti-VHL Western blot (Figure S2).[20] Through this assay, we concluded that 10 μM VHL-SF1-Biotin modified 32% VHL following 2 h of incubation at room temperature, which was further confirmed to be concentration-dependent with respect to the probe (Figure S3).
Figure S2. (A) Structure of VHL-SF-1-Biotin. (B) Structure of VHL-SF-2-Biotin. (C - E) Gel-based streptavidin shift assay of VHL-SF1-Biotin, and VHL-SF2-Biotin. VCB protein was pre-treated with DMSO, VHL-SF1-Biotin (10 μM) or VHL-SF2-Biotin (10 μM) for 2 h at room temperature prior to addition of streptavidin (10 μM, 10 min) at room temperature, after which protein was resolved on SDS-PAGE and visualised by VHL western blotting. (F) Quantification of VHL levels from western blot.
Docking analysis with Molecular Operating Environment (MOE)
Molecular modelling studies were conducted using the software Molecular Operating Environment 2019.01. […]

Structure (SMILES): Cc1cc([C@H](C(=O)N2C[C@H](S(=O)(=O)F)C[C@H]2C(=O)N[C@@H](CC(=O)NCCOCCOCCOCCNC(=O)CCCC[C@H]2SC[C@@H]3NC(=O)N[C@@H]32)c2ccc(-c3scnc3C)cc2)C(C)C)on1 [VHL-SF2-Biotin, (3R,5S)-1-((R)-3-Methyl-2-(3-methylisoxazol-5-yl)butanoyl)-5-(((S)-1-(4-(4-methylthiazol-5-yl)phenyl)-3,17-dioxo-21-((3aS,4R,6aR)-2-oxohexahydro-1H-thieno[3,4-d]imidazole-4-yl)-7,10,13-trioxa-4,16-diazahenicosyl)carbamoyl)pyrrolidine-3-sulfonyl fluoride]
- VHL modified (VHL biotinylation, streptavidin shift): 44%
